Laboratory results reported in US10961238B2, “Modulators of hedgehog (Hh) signaling pathway” (E-THERAPEUTICS PLC, priority 2016, dated 2021).

The molecules below were run on C3H10T1/2 cells (assay: C3H assay: differentiation of C3H10T1/2 cells by mSHH, measurement of alkaline phosphatase). Settings: Mus musculus, C3H 10T1/2; C3H10T1/2 cells stimulated with mSHH for 72 hours; alkaline phosphatase activity; read-out: IC50 Ranges.
Assay type: cell-based, mouse
An IC50 of 10 to 100 nM was found for `C[C@H]1CC(c2c[nH]c3ncccc23)CCN1S(=O)(=O)C1CN(C(=O)OC(C)(C)C)C1` (mixture of isomers) [Compound 45, tert-butyl 3-[(2R)-2-methyl-4-(1H-pyrrolo[2,3-b]pyridin-3-yl)piperidin-1-yl]sulfonylaze-tidine-1-carboxylate] in this work. An IC50 of 10 to 100 nM was found for `CN(C)CC(C)(C)OC(=O)N1CCC(S(=O)(=O)N2CCC(c3c[nH]c4ncccc34)CC2)C1` (racemic) [Compound 147, [1-(dimethylamino)-2-methylpropan-2-yl]3-[4-(1H-pyrrolo[2,3-b]pyridin-3-yl)piperidin-1-yl]sulfonylpyrr olidine-1-carboxylate] in this work. An IC50 of 10 to 100 nM was found for `CC(C)C(CO)NC(=O)N1CCC(S(=O)(=O)N2CCC(c3c[nH]c4ncccc34)CC2)C1` (racemic) [Compound 149, N-(1-hydroxy-3-methylbutan-2-yl)-3-[4-(1H-pyrrolo[2,3-b]pyridin-3-yl)piperidin-1-yl]sulfonylpyrr olidine-1-carboxamide] in this work. An IC50 of 10 to 100 nM was found for `CC(C)(C)OC(=O)N1CCC(S(=O)(=O)N2CCC(c3c[nH]c4ncccc34)CC2)C1` (racemic) [Compound 150, tert-butyl 3-[4-(1H-pyrrolo[2,3-b]pyridin-3-yl)piperidin-1-yl]sulfonylpyrr olidine-1-carboxylate] in this work. An IC50 of 100 to 1000 nM was found for `O=S(=O)(C1CCN(c2ccccn2)C1)N1CCC(c2c[nH]c3ncccc23)CC1` (racemic) [Compound 244, 3-[1-(1-pyridin-2-ylpyrrolidin-3-yl)sulfonylpiper-idin-4-yl]-1H-pyrrolo[2,3-b]pyridine] in this work. An IC50 of 1000 to 10000 nM was found for `O=S(=O)(C1CCNC1)N1CCC(c2c[nH]c3ncccc23)CC1` (racemic) [Compound 249, 3-[1-(pyrrolidin-3-yl)sulfonylpiper-idin-4-yl]-1H-pyrrolo[2,3-b]pyridine] in this work. An IC50 of 100 to 1000 nM was found for `CC(C)(C)OC(=O)N1CCC(S(=O)(=O)N2CCC(c3ccncc3)CC2)C1` (racemic) [Compound 269, tert-butyl 3-(4-pyridin-4-ylpiperidin-1-yl)sulfonylpyrrolidine-1-carboxylate] in this work. An IC50 of 100 to 1000 nM was found for `CN(C(=O)N1CCC(S(=O)(=O)N2CCC(c3ccncc3)CC2)C1)C(C)(C)C` (racemic) [Compound 271, N-tert-butyl-N-methyl-3-(4-pyridin-4-ylpiperidin-1-yl)sulfonylpyrr olidine-1-carboxamide] in this work. An IC50 of 100 to 1000 nM was found for `CC(C)[C@H](CO)NC(=O)N1CC(S(=O)(=O)N2CCC(c3ccc(F)cc3)CC2)C1` (racemic) [Compound 344, 3-[4-(4-fluorophenyl)piperidin-1-yl]sulfonyl-N-[1-hydroxy-3-methylbutan-2-yl] azetidine-1-carboxamide] in this work. An IC50 of 100 to 1000 nM was found for `CC(C)C(CO)NC(=O)N1CC(S(=O)(=O)N2CCC(c3ccc(C#N)cc3)CC2)C1` (racemic) [Compound 348, 3-[4-(4-cyanophenyl)piperidin-1-yl]sulfonyl-N-[1-hydroxy-3-methylbutan-2-yl]azetidine-1-carboxamide] in this work. An IC50 of 100 to 1000 nM was found for `CC(C)(C)OC(=O)N1CC(S(=O)(=O)N2CCC(c3c[nH]c4ncc(F)cc34)CC2)C1` [Compound 1, tert-butyl 3[4-(5-fluoro-1H-pyrrolo[2,3-b]pyridin-3-yl)piperidin-1-yl]sulfonylaze-tidine-1-carboxylate] in this work. An IC50 of 1000 to 10000 nM was found for `Cc1cnc2[nH]cc(C3CCN(S(=O)(=O)C4CN(C(=O)OC(C)(C)C)C4)CC3)c2c1` [Compound 2, tert-butyl 3-[4-(5-methyl-1H-pyrrolo[2,3-b]pyridin-3-yl)piperidin-1-yl] sulfonylaze-tidine-1-carboxylate] in this work. An IC50 of 100 to 1000 nM was found for `CC(C)(C)OC(=O)N1CC(S(=O)(=O)N2CCC(c3cncn3Cc3ccccc3)CC2)C1` [Compound 3, tert-butyl 3-[4-(3-benzylimidazol-4-yl)piperidin-1-yl]sulfonylaze-tidine-1-carboxylate] in this work.
